Results taken from patent EP0379737A2, “Dihydropyridine derivatives for the treatment of angiospasm” (THE GREEN CROSS CORPORATION, priority 1988, dated 1990).

How the values were obtained:
[1] = tested on: coronarism induced by laser cauterization of the coronary artery; experiment: Preventive effect of premedication with coronary vasodilators on coronarism induced by laser cauterization of the coronary artery; assay type: in vivo; conditions: anesthetized dogs, drugs given 10 minutes before cauterization (TNG 100 µg i.c. + 50 µg/min d.i.v.; NC 30 µg/kg/min d.i.v.; Compound 2 10 µg/kg i.v.); for Degree of Stenosis (%) (m ± SE) 10 mins. After: 10 minutes after cauterization; for Degree of Stenosis (%) (m ± SE) 30 mins. After: 30 minutes after cauterization; for Degree of Stenosis (%) (m ± SE) Immediately After: immediately after cauterization
Procedure: Preventive effect of premedication of coronary vasodilators on coronarism induced by laser cauterization of the coronary artery was examined using dogs.
Twenty-three anesthetized dogs premediated with a coronary vasodilator [8 dogs in non-treated group (control group); 7 in nitroglycerin-treated (TNG) group (100 µg i.c. (intracoronary) + 50 µg/min d.i.v. (intravenous drip injection)); 5 in Nicorandil (NC) group (30 µg/kg/min d.i.v); and 8 in Compound 2 (hereinafter described) group (10 µg/kg i.v.)] were used. A 9F guiding catheter was inserted from the right common carotid artery into the 28th circumflex ramus extending from the anterior descending branch of the right common carotid artery. After intravenous injection of 250 U of heparin and 20 mg of lidocaine, a probe having an argon laser heating tip having a diameter of 1.5 mm (manufactured by Trimedyne Corp.) was inserted through the catheter, and 10 minutes after the administration of drugs the coronary vessel was cauterized under a condition of 4.5 W × […] under photofluoroscopic observation. Before the cauterization, immediately after the cauterization, and 10 minutes and 30 minutes after the cauterization, changes of the coronary artery were angiographically observed. The degree of stenosis (%) was calculated from the measured inner diameter each of the cauterized site and the normal site. The degree of stenosis of a site undergoing retardation of angiography was taken as 99%.

[2] = Toxicity: LD50 determination in mice; conditions: mouse, in vivo; 10 to 11-week-old male mice, 3 to 5 mice per group; read-out: LD₅₀
Procedure: LD₅₀ was determined for Compound 2 as prepared in Reference Example 1 below using 10 to 11-week-old male mice (body weight: 14 to 16 g; 3 to 5 mice per group). AS a result, measured LD₅₀ values were more than 1,100 mg/kg at the lowest.

## COC(=O)C1=C(C)NC(C)=C(C(=O)OCCc2ccc(N3CCN(C(c4ccccc4)c4ccccc4)CC3)cc2)C1c1cccc([N+](=O)[O-])c1 (stereo not shown) [Compound 2, 2-[p-(4-benzhydrylpiperazino)phenyl]ethyl methyl 2,6-dimethyl-4-(3-nitrophenyl)-1,4-dihydropyridine-3,5-dicarboxylate]
[1]
  Degree of Stenosis (%) (m ± SE) 10 mins. After: 9 ± 10 %
  Degree of Stenosis (%) (m ± SE) 30 mins. After: 12 ± 12 %
  Degree of Stenosis (%) (m ± SE) Immediately After: 12 ± 12%
[2]
  LD50: > 1100 mg/kg

## O=C(NCCO[N+](=O)[O-])c1cccnc1 [NC, Nicorandil]
[1]
  Degree of Stenosis (%) (m ± SE) 10 mins. After: 28 ± 9 %
  Degree of Stenosis (%) (m ± SE) 30 mins. After: 29 ± 8 %
  Degree of Stenosis (%) (m ± SE) Immediately After: 38 ± 11 %

## O=[N+]([O-])OCC(CO[N+](=O)[O-])O[N+](=O)[O-] [TNG, nitroglycerin]
[1]
  Degree of Stenosis (%) (m ± SE) 10 mins. After: 73 ± 17%
  Degree of Stenosis (%) (m ± SE) 30 mins. After: 66 ± 17%
  Degree of Stenosis (%) (m ± SE) Immediately After: 71 ± 4%
